# PubChem BioAssay (NCI)
# “And” between values parts separate entries of the source, which are not always exact repeats. Equal entries are not always repeated.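 Following 48 hours of exposure in 96-well plates, responses at five concentrations were used to interpolate endpoints linearly. The concentration for 50% growth inhibition is given as GI50. The concentration for full growth arrest is given as TGI.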
# Tested on: SNB-75 CNS
# Assay: inhibition of tumour cell growth, NCI panel, 48 h
Compound,TGI,GI50 [µM]
COc1ccc(C(OCC2OC(n3cc(C)c(=O)[nH]c3=O)CC2n2cc(Cn3cc(I)c(=O)[nH]c3=O)nn2)(c2ccccc2)c2ccccc2)cc1 (centres undefined),> 100 µM,–
O=S1(=O)NC(=NCc2c[nH]c3ccccc23)N(c2ccccc2)c2ccncc21,43.3 µM,–
COc1ccc(CNc2nc(NCc3ccc(OC)c(OC)c3)nc(NC3CCCCC3)n2)cc1,> 100 µM,–
Cc1c2cnccc2c(C)c2c1c1ccccc1n2CCCN,1.48 µM and 0.368 µM,0.169
O=C(CCC(=O)c1ccc(Cl)cc1)NO,> 100 µM,–
COc1c(C)c(C/C=C(\C)CCCCO[Si](c2ccccc2)(c2ccccc2)C(C)(C)C)c(OC)c(OC)c1OC,> 46.4 µM,–
COc1ccc(C2c3cc4c(cc3OC(NNS(=O)(=O)c3ccc(C)cc3)C2C)OCO4)cc1 (centres undefined),> 100 µM,–
C[C@@]12C[C@@H](c3ccccc3O1)N1CCCCSC1=N2,> 100 µM,–
c1ccc(N=C2SC3=Nc4cccc5cccc(c45)N3C2=Nc2ccccc2)cc1,> 100 µM,–
Cc1nc(C(N)=S)sc1/C(CC(=O)C(=O)Nc1cccc2ccc(O)cc12)=N\NC(=O)c1ccncc1,> 100 µM,–
Cc1cc(O)c2c(=O)c3ccccc3[nH]c2c1,93.6 µM,–
Oc1cc2c3c(c1)c1cc4c(cc1c[n+]3CC2)OCO4,26.3 µM,–
Nc1cccc2cc(Cl)cnc12,> 100 µM,–
C=C1c2nc3ccccc3n2C=C(c2ccccc2)N1c1ccc([N+](=O)[O-])cc1,16.4 µM,–
Cc1ccccc1-n1c(=O)c2ncn(CCCl)c2n(-c2ccccc2C)c1=S,> 100 µM,–

# Tested on: DU-145 prostate
# Assay: inhibition of tumour cell growth, NCI panel, 48 h
row,Compound,TGI [µM]
1,O=c1[nH][nH]c(=O)n1Cc1ccccc1Cn1c(=O)[nH][nH]c1=O,> 100
2,CCOC(=O)c1c2ccccc2n2c(N)c(C(N)=O)nnc12,> 100
3,O=C(NNC(=O)c1ccccc1SSc1ccccc1C(=O)NNC(=O)c1ccccc1S)c1ccccc1S,> 54.7
4,CCOC(=O)C(NC(C)=O)(Nc1ccc(F)cc1)C(F)(F)F (centres undefined),> 100
5,O=C1/C(=C/c2ccc(O)cc2)CC/C1=C\c1ccc(O)cc1,> 100
6,CC(C)C1/C(=N/O)CC(c2ccccc2)N(N=O)C1c1ccccc1 (centres undefined),> 100
7,COc1cc(/C=C2\S/C(=N/Nc3nc(-c4ccc(Br)cc4)cs3)NC2=O)cc(OC)c1OC,52.4
8,COC(=O)[C@H]1CO[C@@H](C(C)(C)C)N1C(=O)N1C=CC(=O)C[C@@H]1C,> 100
9,CCC1(O)CC2CC(=O)OC2C1O (centres undefined),> 100
10,Cc1ccc(SCC(CSCCO)OCn2cnc3c2NC(N)=NC32OCCO2)cc1 (centres undefined),> 100
11,Oc1cccc2c(Cl)ccnc12,> 100
12,N#CC1=C(N)N(c2ccccc2)C(c2ccco2)C1(C#N)C#N (centres undefined),37.4
13,NC(=O)C(c1ccccc1)N1OC2C(=O)N(c3ccccc3)C(=O)C2C1c1c2ccccc2c(Cl)c2ccccc12 (centres undefined),> 100
14,CC(C)c1ccc(/C=C2/C=C(c3ccc4ccccc4c3)OC2=O)cc1,> 100
15,COc1ccc(C(OCC2OC(n3cc(C)c(=O)[nH]c3=O)CC2n2cc(Cn3cc(I)c(=O)[nH]c3=O)nn2)(c2ccccc2)c2ccccc2)cc1 (centres undefined),> 100
16,O=S1(=O)NC(=NCc2c[nH]c3ccccc23)N(c2ccccc2)c2ccncc21,> 100
17,COc1ccc(CNc2nc(NCc3ccc(OC)c(OC)c3)nc(NC3CCCCC3)n2)cc1,> 100
18,Cc1c2cnccc2c(C)c2c1c1ccccc1n2CCCN,0.798
19,O=C(CCC(=O)c1ccc(Cl)cc1)NO,> 100
20,COc1c(C)c(C/C=C(\C)CCCCO[Si](c2ccccc2)(c2ccccc2)C(C)(C)C)c(OC)c(OC)c1OC,37.6
21,COc1ccc(C2c3cc4c(cc3OC(NNS(=O)(=O)c3ccc(C)cc3)C2C)OCO4)cc1 (centres undefined),> 100
22,C[C@@]12C[C@@H](c3ccccc3O1)N1CCCCSC1=N2,> 100
23,c1ccc(N=C2SC3=Nc4cccc5cccc(c45)N3C2=Nc2ccccc2)cc1,> 100
24,Cc1nc(C(N)=S)sc1/C(CC(=O)C(=O)Nc1cccc2ccc(O)cc12)=N\NC(=O)c1ccncc1,> 100
25,Cc1cc(O)c2c(=O)c3ccccc3[nH]c2c1,> 100
26,Oc1cc2c3c(c1)c1cc4c(cc1c[n+]3CC2)OCO4,> 42.9
27,Nc1cccc2cc(Cl)cnc12,> 100
28,C=C1c2nc3ccccc3n2C=C(c2ccccc2)N1c1ccc([N+](=O)[O-])cc1,> 74.7
29,Cc1ccccc1-n1c(=O)c2ncn(CCCl)c2n(-c2ccccc2C)c1=S,> 100

# Tested on: M14 melanoma
# Assay: inhibition of tumour cell growth, NCI panel, 48 h
row,Compound,TGI [µM]
1,O=c1[nH][nH]c(=O)n1Cc1ccccc1Cn1c(=O)[nH][nH]c1=O,> 100
2,CCOC(=O)c1c2ccccc2n2c(N)c(C(N)=O)nnc12,> 100
3,O=C(NNC(=O)c1ccccc1SSc1ccccc1C(=O)NNC(=O)c1ccccc1S)c1ccccc1S,> 100
4,CCOC(=O)C(NC(C)=O)(Nc1ccc(F)cc1)C(F)(F)F (centres undefined),> 100
5,O=C1/C(=C/c2ccc(O)cc2)CC/C1=C\c1ccc(O)cc1,> 100
6,CC(C)C1/C(=N/O)CC(c2ccccc2)N(N=O)C1c1ccccc1 (centres undefined),> 100
7,COc1cc(/C=C2\S/C(=N/Nc3nc(-c4ccc(Br)cc4)cs3)NC2=O)cc(OC)c1OC,41.8
8,CCC1(O)CC2CC(=O)OC2C1O (centres undefined),> 100
9,Cc1ccc(SCC(CSCCO)OCn2cnc3c2NC(N)=NC32OCCO2)cc1 (centres undefined),> 100
10,Oc1cccc2c(Cl)ccnc12,13.4
11,N#CC1=C(N)N(c2ccccc2)C(c2ccco2)C1(C#N)C#N (centres undefined),43.4
12,NC(=O)C(c1ccccc1)N1OC2C(=O)N(c3ccccc3)C(=O)C2C1c1c2ccccc2c(Cl)c2ccccc12 (centres undefined),> 100
13,CC(C)c1ccc(/C=C2/C=C(c3ccc4ccccc4c3)OC2=O)cc1,> 100
14,COc1ccc(C(OCC2OC(n3cc(C)c(=O)[nH]c3=O)CC2n2cc(Cn3cc(I)c(=O)[nH]c3=O)nn2)(c2ccccc2)c2ccccc2)cc1 (centres undefined),> 100
15,O=S1(=O)NC(=NCc2c[nH]c3ccccc23)N(c2ccccc2)c2ccncc21,> 100
16,COc1ccc(CNc2nc(NCc3ccc(OC)c(OC)c3)nc(NC3CCCCC3)n2)cc1,> 100
17,Cc1c2cnccc2c(C)c2c1c1ccccc1n2CCCN,0.91
18,O=C(CCC(=O)c1ccc(Cl)cc1)NO,> 100
19,COc1c(C)c(C/C=C(\C)CCCCO[Si](c2ccccc2)(c2ccccc2)C(C)(C)C)c(OC)c(OC)c1OC,> 46.4
20,COc1ccc(C2c3cc4c(cc3OC(NNS(=O)(=O)c3ccc(C)cc3)C2C)OCO4)cc1 (centres undefined),> 100
21,C[C@@]12C[C@@H](c3ccccc3O1)N1CCCCSC1=N2,> 100
22,c1ccc(N=C2SC3=Nc4cccc5cccc(c45)N3C2=Nc2ccccc2)cc1,> 100
23,Cc1nc(C(N)=S)sc1/C(CC(=O)C(=O)Nc1cccc2ccc(O)cc12)=N\NC(=O)c1ccncc1,> 100
24,Cc1cc(O)c2c(=O)c3ccccc3[nH]c2c1,52.6
25,Oc1cc2c3c(c1)c1cc4c(cc1c[n+]3CC2)OCO4,> 100
26,Nc1cccc2cc(Cl)cnc12,> 100
27,C=C1c2nc3ccccc3n2C=C(c2ccccc2)N1c1ccc([N+](=O)[O-])cc1,> 60.4
28,Cc1ccccc1-n1c(=O)c2ncn(CCCl)c2n(-c2ccccc2C)c1=S,> 100

# Tested on: UACC-62 melanoma
# Assay: inhibition of tumour cell growth, NCI panel, 48 h
row,Compound,TGI [µM]
1,O=c1[nH][nH]c(=O)n1Cc1ccccc1Cn1c(=O)[nH][nH]c1=O,> 100
